Test results taken from the supplement of paper PMC10307832.

Legend:
Assay in all cases: relative viability (nuclei count vs DMSO), 5 days (fraction); higher = more cells survive
FG-4592 + Pictilisib = compound: Cc1nc(C(=O)NCC(=O)O)c(O)c2ccc(Oc3ccccc3)cc12 [FG-4592] + CS(=O)(=O)N1CCN(Cc2cc3nc(-c4cccc5[nH]ncc45)nc(N4CCOCC4)c3s2)CC1 [Pictilisib] (partner 1 µM)
How it was run: (§1)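 Dosing by pin tool came one day after lung cancer cell lines were seeded in 1536-well plates, using either one drug or a fixed anchor-drug dose plus five library-drug doses (not always all listed) in √10 steps. After 5 days, nuclei were counted on 4× images. Relative viability is treated-well nuclei count divided by vehicle-well nuclei count, and values are medians of duplicate plates.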

FG-4592 + Navitoclax = compound: Cc1nc(C(=O)NCC(=O)O)c(O)c2ccc(Oc3ccccc3)cc12 [FG-4592] + CC1(C)CCC(c2ccc(Cl)cc2)=C(CN2CCN(c3ccc(C(=O)NS(=O)(=O)c4ccc(N[C@H](CCN5CCOCC5)CSc5ccccc5)c(S(=O)(=O)C(F)(F)F)c4)cc3)CC2)C1 [Navitoclax] (partner 0.5 µM)
How it was run: as §1

FG-4592 + OSI-027 = compound: Cc1nc(C(=O)NCC(=O)O)c(O)c2ccc(Oc3ccccc3)cc12 [FG-4592] + COc1cccc2cc(-c3nc([C@H]4CC[C@H](C(=O)O)CC4)n4ncnc(N)c34)[nH]c12 [OSI-027] (partner 0.5 µM)
How it was run: as §1

IU1-47 + OSI-027 = compound: CC1=CC(=C(N1C2=CC=C(C=C2)Cl)C)C(=O)CN3CCCCC3 [IU1-47] + COc1cccc2cc(-c3nc([C@H]4CC[C@H](C(=O)O)CC4)n4ncnc(N)c34)[nH]c12 [OSI-027] (partner 0.5 µM)
How it was run: as §1

In the case of UMC-11, the relative viability (FG-4592 + Pictilisib; first compound 0.08 µM) is reported as 0.722, the relative viability (FG-4592 + Pictilisib; first compound 0.253 µM) is reported as 0.714 and the relative viability (FG-4592 + Pictilisib; first compound 0.8 µM) is reported as 0.599. For the same cell line, the relative viability (FG-4592 + Pictilisib; first compound 2.53 µM) was 0.74, the relative viability (FG-4592 + Pictilisib; first compound 8 µM) was 0.7 and the relative viability (FG-4592 + Navitoclax; first compound 0.08 µM) was 0.391. The relative viability (FG-4592 + Navitoclax; first compound 0.253 µM) was 0.321, the relative viability (FG-4592 + Navitoclax; first compound 0.8 µM) was 0.29 and the relative viability (FG-4592 + Navitoclax; first compound 2.53 µM) was 0.312. For the same cell line, the relative viability (FG-4592 + Navitoclax; first compound 8 µM) was 0.274, the relative viability (FG-4592 + OSI-027; first compound 0.08 µM) was 0.466 and the relative viability (FG-4592 + OSI-027; first compound 0.253 µM) was 0.529. It also gave a relative viability (FG-4592 + OSI-027; first compound 0.8 µM) of 0.498, a relative viability (FG-4592 + OSI-027; first compound 2.53 µM) of 0.461 and a relative viability (FG-4592 + OSI-027; first compound 8 µM) of 0.441. For the same cell line, the relative viability (IU1-47 + OSI-027; first compound 0.08 µM) was 0.498, the relative viability (IU1-47 + OSI-027; first compound 0.253 µM) was 0.43 and the relative viability (IU1-47 + OSI-027; first compound 0.8 µM) was 0.523. It also gave a relative viability (IU1-47 + OSI-027; first compound 2.53 µM) of 0.611 and a relative viability (IU1-47 + OSI-027; first compound 8 µM) of 0.465.
